Values of other authors in paper PMC5201331, “Subchronic Toxicities of HZ1006, a Hydroxamate-Based Histone Deacetylase Inhibitor, in Beagle Dogs and Sprague-Dawley Rats” (International Journal of Environmental Research and Public …, 2016).

Assays:
rats = tested on: rats; parameters: method as in PMID 19903873; conditions: rats, 20, 50 or 150 mg/kg/day, 26 weeks orally dosed daily with 4-week recovery; cited from earlier work
dogs = tested on: dogs; parameters: method as in PMID 19903873; conditions: 26 weeks orally dosed daily with 4-week recovery; cited from earlier work
patients = tested on: patients; parameters: method as in PMID 12440223; conditions: day-1 and -5 schedule every 21 days; cited from earlier work

Compound | no-observed adverse effect level (rats) | no-observed adverse effect level (dogs) [mg/kg/day] | MTD (patients) [mg/m^2]
O=C(CCCCCCC(=O)Nc1ccccc1)NO [vorinostat, suberoylanilide hydroxamic acid] | not established | 60 | 
C/C=C1\NC(=O)[C@H]2CSSCC/C=C/[C@H](CC(=O)N[C@H](C(C)C)C(=O)N2)OC(=O)[C@H](C(C)C)NC1=O [depsipeptide] |  |  | 17.8
